ChEMBL document CHEMBL1138714, “Isosteric N-arylpiperazine replacements in a series of dihydropyridine NPY1 receptor antagonists” (Bioorg Med Chem Lett, 2004)

Biological target: T1, Neuropeptide Y receptor type 1 (Homo sapiens, UniProt P25929)
T1 sequence (P25929 whole entry): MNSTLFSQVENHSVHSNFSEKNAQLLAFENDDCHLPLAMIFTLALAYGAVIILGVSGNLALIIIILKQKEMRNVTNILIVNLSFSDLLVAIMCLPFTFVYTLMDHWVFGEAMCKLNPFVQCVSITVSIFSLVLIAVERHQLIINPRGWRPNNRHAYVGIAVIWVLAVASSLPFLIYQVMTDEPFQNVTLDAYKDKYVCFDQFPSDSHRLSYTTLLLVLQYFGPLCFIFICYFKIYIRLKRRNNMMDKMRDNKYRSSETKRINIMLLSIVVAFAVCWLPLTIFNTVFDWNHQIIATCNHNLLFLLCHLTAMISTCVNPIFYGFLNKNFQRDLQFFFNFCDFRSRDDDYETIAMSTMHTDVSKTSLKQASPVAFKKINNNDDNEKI
Assay: Inhibition of binding of [125I]PYY to membranes of SK-N-MC cells expressing the human Y1 receptors
Format: cell membranes

| IC50 [nM] | SMILES |
| --- | --- |
| 4 | COC(=O)C1=C(C)N=C(C)/C(=C(/O)OC)C1c1cccc(NC(=O)NCCNC2CCN(c3ccccc3C)CC2)c1 (stereo unspecified) |
| 6 | COC(=O)C1=C(C)N=C(C)/C(=C(/O)OC)C1c1cccc(NC(=O)NCCNC2CCN(c3ccccc3O)CC2)c1 (stereo unspecified) |
| 8 | COC(=O)C1=C(C)N=C(C)/C(=C(/O)OC)C1c1cccc(N/C(=N/CCNC2CCN(c3cccc(Cl)c3)CC2)NC#N)c1 (stereo unspecified) |
| 2 | COC(=O)C1=C(C)N=C(C)/C(=C(/O)OC)C1c1cccc(NC(=O)NCCNC2CCN(c3ccccc3[N+](=O)[O-])CC2)c1 (stereo unspecified) |
| 2 | COC(=O)C1=C(C)N=C(C)/C(=C(/O)OC)C1c1cccc(NC(=O)NCCNC2CCN(c3ccccc3)CC2)c1 (stereo unspecified) |
| 4 | COC(=O)C1=C(C)N=C(C)/C(=C(/O)OC)C1c1cccc(N/C(=N/CCNC2CCN(c3ccccc3[N+](=O)[O-])CC2)NC#N)c1 (stereo unspecified) |
| 25 | COC(=O)C1=C(C)N=C(C)/C(=C(/O)OC)C1c1cccc(NC(=O)NCCNC2CCN(c3ccccc3OC(F)(F)F)CC2)c1 (stereo unspecified) |
| 3 | COC(=O)C1=C(C)N=C(C)/C(=C(/O)OC)C1c1cccc(N/C(=N/CCNC2CCN(c3ccccc3C#N)CC2)NC#N)c1 (stereo unspecified) |
| 2 | COC(=O)C1=C(C)N=C(C)/C(=C(/O)OC)C1c1cccc(NC(=O)NCCNC2CCN(c3ccccc3OC)CC2)c1 (stereo unspecified) |
| 5 | COC(=O)C1=C(C)N=C(C)/C(=C(/O)OC)C1c1cccc(NC(=O)NCCNC2CCN(c3ccccc3SC)CC2)c1 (stereo unspecified) |
| 14 | COC(=O)C1=C(C)N=C(C)/C(=C(/O)OC)C1c1cccc(N/C(=N/CCNC2CCN(c3ccccc3C(F)(F)F)CC2)NC#N)c1 (stereo unspecified) |
| 4 | COC(=O)C1=C(C)N=C(C)/C(=C(/O)OC)C1c1cccc(N/C(=N/CCNC2CCN(c3ccccc3OC)CC2)NC#N)c1 (stereo unspecified) |
| 28 | COC(=O)C1=C(C)N=C(C)/C(=C(/O)OC)C1c1cccc(N/C(=N/CCNC2CCN(c3ccccc3OC(F)(F)F)CC2)NC#N)c1 (stereo unspecified) |
| 31 | COC(=O)C1=C(C)N=C(C)/C(=C(/O)OC)C1c1cccc(NC(=O)NCCNC2CCN(c3ccccc3C(F)(F)F)CC2)c1 (stereo unspecified) |
| 10 | COC(=O)C1=C(C)N=C(C)/C(=C(/O)OC)C1c1cccc(N/C(=N/CCNC2CCN(c3ccccc3)CC2)NC#N)c1 (stereo unspecified) |
| 8 | COC(=O)C1=C(C)N=C(C)/C(=C(/O)OC)C1c1cccc(NC(=O)NCCNC2CCN(c3cccc(Cl)c3)CC2)c1 (stereo unspecified) |
| 5 | COC(=O)C1=C(C)N=C(C)/C(=C(/O)OC)C1c1cccc(N/C(=N/CCNC2CCN(c3ccccc3O)CC2)NC#N)c1 (stereo unspecified) |
| 4 | COC(=O)C1=C(C)N=C(C)/C(=C(/O)OC)C1c1cccc(N/C(=N/CCNC2CCN(c3ccccc3C)CC2)NC#N)c1 (stereo unspecified) |
| 39 | COC(=O)C1=C(C)N=C(C)/C(=C(/O)OC)C1c1cccc(N/C(=N/CCCN2CCN(c3cccc(OC)c3)CC2)NC#N)c1 (stereo unspecified) |
| 12 | COC(=O)C1=C(C)N=C(C)/C(=C(/O)OC)C1c1cccc(NC(=O)NCCCN2CCN(c3ccccc3OC)CC2)c1 (stereo unspecified) |
| 3 | COC(=O)C1=C(C)N=C(C)/C(=C(/O)OC)C1c1cccc(N/C(=N/CCNC2CCN(c3ccccc3SC)CC2)NC#N)c1 (stereo unspecified) |
| 3 | COC(=O)C1=C(C)N=C(C)/C(=C(/O)OC)C1c1cccc(NC(=O)NCCNC2CCN(c3ccccc3C#N)CC2)c1 (stereo unspecified) |

Biological target: T1, Neuropeptide Y receptor type 1
Assay: Antagonist activity towards Neuropeptide Y receptor type 1
Format: functional

| Ki [nM] | SMILES |
| --- | --- |
| 1.9 | COC(=O)C1=C(C)N=C(C)/C(=C(/O)OC)C1c1cccc(NC(=O)NCCNC2CCN(c3ccccc3OC)CC2)c1 (stereo unspecified) |
| 3.6 | COC(=O)C1=C(C)N=C(C)/C(=C(/O)OC)C1c1cccc(N/C(=N/CCNC2CCN(c3ccccc3OC)CC2)NC#N)c1 (stereo unspecified) |

System: not listed separately
Assay: Tested for inhibition of the forskolin-stimulated cAMP production
Format: functional

| SMILES | Kb [nM] |
| --- | --- |
| COC(=O)C1=C(C)N=C(C)/C(=C(/O)OC)C1c1cccc(NC(=O)NCCNC2CCN(c3ccccc3OC)CC2)c1 (stereo unspecified) | 20 |
| COC(=O)C1=C(C)N=C(C)/C(=C(/O)OC)C1c1cccc(N/C(=N/CCNC2CCN(c3ccccc3OC)CC2)NC#N)c1 (stereo unspecified) | 9.4 |
